Experimental data: patent US11000568B2, “Means and methods for treating copper-related diseases” (HELMHOLTZ ZENTRUM MÜNCHEN—DEUTSCHES FORSCHUNGSZENTRUM FÜR …, priority 2015, dated 2021)
“Also recorded” adds a separate entry of the source. Structures can show the parent of a compound that is named as a salt.

Columns and labels:
LPP−/− mitochondria = test: Chelator treatment of freshly isolated copper burdened LPP−/− mitochondria (copper extraction); design: species or system rat; conditions: 30 min incubation
LPP−/− livers = test: Two hour LPP−/− liver perfusion; design: species or system rat; conditions: MB 0.7 μM, TTM 0.8 μM, D-PA 2.2 μM, TETA 1.8 μM
Protocol: LPP−/− livers (animal age 79-83 days) were perfused in a single pass manner with Krebs-Ringer bicarbonate solution containing 5 mM glucose (Beuers et al., J Biol Chem 278, 17810-17818 (2003)). The medium was gassed with 95% O2/5% CO2 and kept at 37° C. Rat livers were perfused via the portal vein (Beuers et al., log. cit.), the right lateral liver lobe was ligated and its copper content served as pre-perfusion control (Beuers et al., Hepatology 33, 1206-1216 (2001)). After cannulation of the bile duct a 20 min sample of bile was collected before the copper chelators were continuously added to the perfusion medium. Bile and outflow perfusate were collected in 10 min intervals as described elsewhere (Beuers et al., log. cit.). D-PA*HCl (20 mg/108 μmol), TETA*2HCl (20 mg/91 μmol), TTM*2NH4 (10 mg/38 μmol) and MB (40 mg/35 μmol) were each dissolved in 50 ml 0.9% NaCl, and continuously added to the perfusion medium via a perfusion pump (Perfusor, Braun, Melsungen) within 2 hours. The molar ratios of the chelators applied was MB 1:D-PA 3.1:TETA 2.6:TTM 1.1. LDH in the outflow perfusate was measured every ten minutes as described (Beuers et al., log. cit.). Control perfusions were done with Krebs-Ringer bicarbonate solution only.

LPP−/− rats = test: Short-term in vivo treatment of LPP−/− rats; design: species or system rat; conditions: MB i.p. 3 or 5 days; D-PA or TETA 4 days
Protocol: LPP rats were treated with MB either by daily i.p. injections for 3 or 5 consecutive days, or twice daily i.p. injections for 8 consecutive days at a dose of 150 mg/kg bw or 4 days via the drinking water with D-PA at a dose of 100 mg/kg bw/d or TETA at 480 mg/kg bw/d, respectively (Togashi et al., Hepatology 15, 82-87 (1992)). Based on a mean copper content of 250 μg/g w.w. in Atp7b−/− rat livers at the age of treatment start (Zischka et al., log. cit.), a LPP−/− rat liver of 8 g w.w. contains around 31.5 μmol copper. Single MB doses were chosen equimolar to this copper amount. […] Assuming 40 ml water intake per day for a rat weighing 250 g this translates to a dose of 480 mg/kg bw/d. With respect to the mean liver copper content in LPP−/− rats aged 85 days, the molar ratios of the chelators applied was MB 1:D-PA 4.3:TETA 17.4, respectively. For the intravenous MB application (150 mg/kg bw), catheters connected to a PinPort™ (Instech Laboratories, Inc., USA) were inserted in the femoral vein of the rat, fixed with non-absorbable sutures and subcutaneously tunneled and exteriorized through a skin incision made between the shoulders.
Formalin-fixed, paraffin-embedded liver samples were cut into 4 μm-thick sections and either stained with hematoxylin and eosin for standard analyses or with Masson trichrome for analysis of fibrotic tissue. AST activity and bilirubin concentration in animal plasma or serum were measured with a Reflotron system (Roche).
Copper in liver homogenates, cell lysates and mitochondrial preparations were analyzed by ICP-OES (Ciros Vision, SPECTRO Analytical Instruments GmbH) after wet ashing of samples with 65% nitric acid (Zischka et al., log. cit.).
The efficiency of a short-term MB treatment schedule was assessed in LPP−/− rats at the age of liver disease onset (85-90 days). Animals received MB (i.p.) either for 3 or 5 days or the clinically used copper chelators D-PA or TETA, which were orally administered for 4-days.

LEC rats = conditions: 100 mg/kg bw/d via drinking water, long-term; cited from earlier work

Row | Compound | mitochondrial copper (LPP−/− rats) | serum AST levels (LPP−/− rats) | whole liver copper (LPP−/− rats) | further results
1 | CC(NC(=O)C(C)NC(=S)C1N=C(C(NC(=O)C(CO)NC(=O)C(C)NC(=S)C2N=C(C(=O)CCCNC(=N)N)NC2=O)C(C)OS(=O)(=O)O)OC1=O)C(=O)O (centres unmarked) [mb-SB2] | – | – | – | copper depletion from LPP−/− mitochondria (LPP−/− mitochondria; 1 mM, mitochondria from three LPP−/− rats, vs buffer treated control): depletes copper at least as effective as another MB peptide mb-OB3b; also recorded: decreased at least as effective as the MB peptide mb-OB3b
2 | NCCNCCNCCN [TETA, trientine*2 HCl, reference compound] | No copper reduction | unable to avoid the increase of serum AST levels | No copper reduction | copper released into bile (LPP−/− livers; HCl): did not provoke any detectable release of copper into the bile; also recorded: did not bring copper into bile
3 | CC(C)(S)[C@@H](N)C(=O)O.Cl [D-PA, D-penicillamine*HCl, reference compound] | No copper reduction | unable to avoid the increase of serum AST levels | No copper reduction | copper released into bile (LPP−/− livers): did not provoke any detectable release of copper into the bile; also recorded: did not bring copper into bile; onset of hepatitis (LEC rats): successfully prevent the onset of hepatitis
4 | tetrathiomolybdate*2 NH4 [TTM] | – | – | – | copper associated with LPP−/− mitochondria (LPP−/− mitochondria; 2 mM each): rapidly decreased copper
